Measured values from patent US11065335B2, “Methods of treating leukemia using compositions containing bis(benzylthio)octanoic acid and ion pairs thereof” (Rafael Pharmaceuticals, Inc., priority 2007, dated 2021).
Where a name gives a salt, the structure may show the parent alone.

Columns and labels:
[1] = tested on: A2780 human ovarian cancer cells; assay: CellTiter Glo cell viability assay, A2780 cells
Protocol: (§1) Two types of human tumor cells were used in this investigation: BXPC3 human pancreatic cancer cells and A2780 human ovarian cancer cells. The BXPC3 cells were originally obtained from American Type Cell Culture (ATCC). The ovarian tumor cells were gifts from Roswell Park Cancer Institute, Buffalo, N.Y. All tumor cells were maintained at 37° C. in a humidified 5% CO2 atmosphere in T75 tissue culture flasks containing 20 mL of Roswell Park Memorial Institute (RPMI) 1640 containing 2 mM L-glutamine, 10% fetal bovine serum (FBS) and 1% penicillin and streptomycin (100 IU/mL penicillin and 100 μg/mL streptomycin). The tumor cells were split at a ratio of 1:5 every 4-5 days by trypsinization and resuspended in fresh medium in a new flask. Cells were harvested for experiments at 70-90% confluency.
(§2) CPI-613 (i.e., 6,8-bis(benzylthio)octanoic acid) stock solutions at concentrations of 8, 4, 2, 1.5 and 0.5 mM were prepared in the appropriate vehicles. The molar ratio of vehicle to CPI-613 was maintained at 8:1. The corresponding vehicle concentrations were 64, 32, 16, 12, and 4 mM respectively. A sixty-four mM aliquot of vehicle was dissolved in 10 mL of water. Next, 8 mM of CPI-613 was added and the mixture was stirred until a clear solution was obtained. […] A 5 μL aliquot of this stock solution was added to 95 μL of tumor cells in media. Upon dilution in the wells, the corresponding drug concentrations were 400, 200, 100, 75 and 25 μM respectively.
(§3) For the sodium salt and potassium salt form of CPI-613, 1 equivalent of CPI-613 solid was dissolved in water. Sixty-two mg of CPI-613 (0.00016 mol) was added to 10 mL of water, then 165 μL of 1M NaOH or KOH was added and stirred until a clear solution was obtained. This gave a 16 mM solution. The resulting 16 mM solution was then serially diluted, thereby providing 8 mM and 4 mM solutions of the CPI-613 salt form. For the ammonium salt, vehicle to drug ratio was maintained at 8:1 and the formulation was prepared using procedures analogous to those described above in Section 2 relating to preparation of CPI-613 formulations in different vehicles.
(§4) CPI-613 formulated in 1M triethanolamine (TEA) was used as an internal control during formulation screening. To prepare a 16 mM of working stock of CPI-613, 50 mg/mL of CPI-613 (128.66 mM of CPI-613 in 1M TEA) was diluted in complete cell culture media containing 10% FBS. That is, 310 μL of a 128.66 mM solution of CPI-613 in 1M TEA was added to 2.19 mL of cell culture media. This stock was further diluted serially in complete media to give 8 mM, 4 mM 2 mM, 1.5 mM and 0.5 mM working solutions. On the day of testing, 5 μL of this working solution was added to 95 μL of cell culture media (20 fold dilution) resulting final concentrations of 400, 200, 100, 75 and 25 μM CPI-613, respectively. The ratio of CPI-613 to TEA was maintained at 1:8 ratio at all times.
(§5) The cell viability of CPI-613 formulations formulated at a ratio of 1:8, CPI-613 to vehicle, was assessed by exposing the A2780 ovarian tumor cells and BXPC3 human pancreatic cancer cells to the following CPI-613 concentrations: 400 μM (3200 μM vehicle), 200 μM (1600 μM vehicle), 100 μM (800 μM vehicle), 75 μM (600 μM vehicle) and 25 μM (200 μM vehicle) The impact of corresponding vehicles at 3200, 1600 and 800 μM concentrations was also tested in tumor cells for cell viability. […] CPI-613 in TEA was used as an internal control. The tumor cells were treated for 24 hrs with the test article in serum-containing medium. After 24 hrs of treatment the number of viable tumor cells was determined.
(§6) The number of cells targeted for the study was 4×10^3 per well in 100 μL of medium. The actual number of cells were counted and seeded in the wells of a 96 well-plate. The cells were incubated for ˜24 hrs before addition of CPI-613.
(§7) For each cell line the concentrations of test articles or vehicles specified above was used.

[2] = tested on: BXPC3 human pancreatic cancer cells; assay: PI/Annexin Alexa Fluor 488 staining, FACS, type of cell death; format: cell-based; conditions: 300 μM of CPI-613; 24 hours
Source text: Apoptotic cells will stain Annexin V positive but PI negative because the PI cannot cross the intact cell membrane. Necrotic cells will stain positive for both Annexin V and PI because the cell membrane is not intact.
BxPC3 human pancreatic cancer cells were used in this investigation. These tumor cells were originally obtained from American Type Cell Culture (ATCC, Manassas, Va.). […] Cells were split at a ratio of 1:10 every 2-3 days by trypsinization and resuspended in fresh medium in a new flask. Cells were harvested for experiments in the same way at 70-90% confluency.
2) A 1 mL aliquot of each test condition was added to corresponding well. Each treatment condition was run in duplicate. Cells were incubated for 24 hours with test conditions prior to PI/Annexin Staining.
3) After 24 hours, cells, including floating cells, with media were harvested and centrifuged at 1,400 RPM for 5 minutes.
4) For all samples the supernatant was aspired off, and the pellet was resuspended in 3 mL PBS and then centrifuged again at 1,400 RPM for 5 minutes, for a total of 2 washes.
Cells were incubated with PI/Annexin V for 8 minutes.
6) The reaction was stopped by adding 400 μL 1× Annexin V binding buffer.
7) Samples were then taken to FACS facility to be read on the FACS Scan Flow Cytometer.

[3] = tested on: BXPC3 human pancreatic cancer cells; assay: CellTiter Glo cell viability assay, BXPC3 cells
Protocol: as §1, §2, §3, §4, §5, §6, §7

[4] = salt formulation at 200 μM, 24 hrs
[5] = salt formulation at 400 μM, 24 hrs

Compound: O=C(O)CCCCC(CCSCc1ccccc1)SCc1ccccc1 (stereo not drawn) [CPI-613 sodium salt]
- A2780 Cell Viability (alkali salt formulations) ([1]; CPI-613 200 μM, CPI-613 to base 1:1, 24 hrs): ++++ (tumor cell viability of >10% up to 30%)
- viability at 25 µM ([1]; Homo sapiens, A2780, 24 h, read-out: A2780 Cell Viability (alkali salt formulations), CPI-613 25 μM, CPI-613 to base 1:1): 70 to 95%
- viability at 75 µM ([1]; Homo sapiens, A2780, 24 h, read-out: A2780 Cell Viability (alkali salt formulations), CPI-613 75 μM, CPI-613 to base 1:1): 70 to 95%
- viability at 100 µM ([1]; Homo sapiens, A2780, 24 h, read-out: A2780 Cell Viability (alkali salt formulations), CPI-613 100 μM, CPI-613 to base 1:1): 70 to 95%
- viability at 400 µM ([1]; Homo sapiens, A2780, 24 h, read-out: A2780 Cell Viability (alkali salt formulations), CPI-613 400 μM, CPI-613 to base 1:1): < 10%
- cell kill in A2780 cells [1, 4]: ~65%
- cell kill in A2780 cells [1, 5]: all the cells were killed
- type of cell death (apoptosis or necrosis) [2]: higher number of cells in the state of apoptotic death versus the number of cells in the state of necrotic death
- BXPC3 Cell Viability (alkali salt formulations) ([3]; CPI-613 75 μM, CPI-613 to base 1:1, 24 hrs): + (tumor cell viability of >95%)
- viability at 25 µM ([3]; Homo sapiens, BXPC-3, 24 h, read-out: BXPC3 Cell Viability (alkali salt formulations), CPI-613 25 μM, CPI-613 to base 1:1): > 95%
- viability at 100 µM ([3]; Homo sapiens, BXPC-3, 24 h, read-out: BXPC3 Cell Viability (alkali salt formulations), CPI-613 100 μM, CPI-613 to base 1:1): 70 to 95%
- viability at 200 µM ([3]; Homo sapiens, BXPC-3, 24 h, read-out: BXPC3 Cell Viability (alkali salt formulations), CPI-613 200 μM, CPI-613 to base 1:1): 30 to 70%
- viability at 400 µM ([3]; Homo sapiens, BXPC-3, 24 h, read-out: BXPC3 Cell Viability (alkali salt formulations), CPI-613 400 μM, CPI-613 to base 1:1): < 10%
- cell kill in BXPC3 cells [3, 4]: ~50%
- cell kill in BXPC3 cells [3, 5]: all the cells were killed
